Where two headings read alike, the source gives them in different places.
Assays:
[1] = tested on: NCI's 60 human tumor cell line; assay: NCI 60 human tumor cell line assay (sulforhodamine B); type: cell-based; conditions: read-out: IC50 (the source's name)
Description: Each test compound was screened against a battery of 60 human cell lines obtained from eight organs. In a typical procedure, the cell suspensions that were diluted according to the particular cell type and the expected target cell density (5000-40,000 cells per well based on cell growth characteristics) were added into 96-well microtiter plates. Inoculates were allowed a preincubation period of 24h at 37°C. for stabilization. Dilutions at twice the intended test concentrations were added at time zero in 100-µl aliquots to microtiter plate wells. Usually test compounds were evaluated at five 10-fold dilutions. The highest well concentration used in the test is 10^-4M. The cells are then incubated in the presence of drug (the test compound) for further 48h in 5% CO2 atmosphere and 100% humidity. At the end of this time, the adherent cells are fixed to the plate by means of trichloroacetic acid, and after a number of washes, the cell layer is treated with the protein stain Sulforhodamine B. The optical density which is proportional to protein mass, is then read by automated spectrophotometric plate readers at a wavelength of 515 nm. Readings are transferred to a microcomputer and final reports are generated using especially developed software.

[2] = biological target: Human Serum Albumin (Homo sapiens, UniProt P02768); conditions: in the presence of HSA at 37°C; comparison in words; cited from earlier work
[3] = mean value of GI50 (50% cell growth inhibition) over NCI's 60 human tumor cell lines, 48h incubation with drug

Sequence of Human Serum Albumin (P02768 25-609): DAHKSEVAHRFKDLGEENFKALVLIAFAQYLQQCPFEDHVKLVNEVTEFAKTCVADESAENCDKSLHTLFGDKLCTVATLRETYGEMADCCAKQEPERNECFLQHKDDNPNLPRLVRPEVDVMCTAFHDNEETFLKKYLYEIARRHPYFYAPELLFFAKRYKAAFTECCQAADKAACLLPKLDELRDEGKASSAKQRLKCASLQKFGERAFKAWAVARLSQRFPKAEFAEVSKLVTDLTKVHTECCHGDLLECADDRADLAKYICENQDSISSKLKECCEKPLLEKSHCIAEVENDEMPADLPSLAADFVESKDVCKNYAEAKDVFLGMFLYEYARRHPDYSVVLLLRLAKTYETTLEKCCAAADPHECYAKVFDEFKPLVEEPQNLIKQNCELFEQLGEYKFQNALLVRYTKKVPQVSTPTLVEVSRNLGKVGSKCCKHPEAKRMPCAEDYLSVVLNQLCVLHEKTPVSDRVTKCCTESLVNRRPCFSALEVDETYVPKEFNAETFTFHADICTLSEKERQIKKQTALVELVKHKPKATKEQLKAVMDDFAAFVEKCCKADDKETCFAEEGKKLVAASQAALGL

Molecule	GI50 [1, 3] [µM]	also measured
5-(2'-N-pyrrolidinoethoxy)-7-ethylcamptothecin [Example 39]	18.6	–
5-(2'-aminoethoxy)-7-ethylcamptothecin [Example 37]	18.6	–
CC[C@@]1(O)C(=O)OCc2c1cc1n(c2=O)C(OCCO)c2cc3c([N+](=O)[O-])cccc3nc2-1 (stereo partly shown) [9-Nitro-5-(2'-hydroxyethoxy)camptothecin]	–	GI50 ([1]; Homo sapiens, 48 h): 7.94 µM
CCOC1c2cc3c(O)cccc3nc2-c2cc3c(c(=O)n21)COC(=O)[C@]3(O)CC (stereo partly shown) [Example 11, 5-Ethoxy-9-hydroxycamptothecin]	6.68	–
CC[C@@]1(O)C(=O)OCc2c1cc1n(c2=O)C(OCC(F)(F)F)c2cc3cc(O)ccc3nc2-1 (stereo partly shown) [Example 27, 10-Hydroxy-5-trifluoroethoxycamptothecin]	0.38	–
CC[C@@]1(O)C(=O)OCc2c1cc1n(c2=O)C(OCCOC)c2cc3ccccc3nc2-1 (stereo partly shown) [Example 43, 5-(2'-methoxyethoxy)camptothecin]	2.23	–
CCc1c2c(nc3ccc(O)cc13)-c1cc3c(c(=O)n1C2)COC(=O)[C@]3(O)CC [SN-38, 7-ethyl-10-hydroxycamptothecin]	–	percentage (%) of lactone form at equilibrium [2]: higher percentage (%) of lactone form at equilibrium than 20(S) camptothecin of the formula 3 and 9-aminocamptothecin of the formula 6
